Consider twelve molecules from ChEMBL document CHEMBL4000239, “A novel piperazine linked β-amino alcohols bearing a benzosuberone scaffolds as anti-proliferative agents” (2017).

Common to all, as to format: functional
In experiment [1] the test system is HeLa. As to the kind of experiment: Cytotoxicity against human HeLa cells assessed as growth inhibition after 48 hrs by SRB assay.
Experiment [2] relates to MDA-MB-231. As to the kind of experiment: Cytotoxicity against human MDA-MB-231 cells assessed as growth inhibition after 48 hrs by SRB assay. To be noted: MDA-MB-231, 48 h.
Experiment [3] concerns A549. The experiment can be described thus: Cytotoxicity against human A549 cells assessed as growth inhibition after 48 hrs by SRB assay. To be noted: A549, 48 h.
The nature of experiment [4]: Cytotoxicity against human MiaPaCa cells assessed as growth inhibition after 48 hrs by SRB assay. To be noted: MIA PaCa-2, 48 h.

Regarding `Cc1cc2c(cc1C)C(Cl)=C(COCC(O)CN1CCCCC1)CCC2` (stereo not drawn), the GI50 in experiment [1] came to 1.7 µM; in experiment [2], 2.1 µM; in experiment [3] it was 1.5 µM; in experiment [4], 2.6 µM.
Turning to `Cc1cc2c(cc1C)C(Cl)=C(COCC(O)CN1CCN(c3ccccc3F)CC1)CCC2` (stereo not drawn), the GI50 in experiment [1] is 7.8 µM; in experiment [2] it was 9 µM; in experiment [3], 6.3 µM; in experiment [4], 9.6 µM.
In the same order, the values of `Cc1cc2c(cc1C)C(Cl)=C(COCC(O)CN1CCSCC1)CCC2` (stereo not drawn) are 1 µM, 2.9 µM, 0.9 µM and 1.5 µM.
In the same order, the values of `Cc1cc2c(cc1C)C(Cl)=C(COCC(O)CN1CCN(C)CC1)CCC2` (stereo not drawn) are 16.3 µM, 20.8 µM, 18.2 µM and 24.4 µM.
In the same order, the values of `CCOC(=O)N1CCN(CC(O)COCC2=C(Cl)c3cc(C)c(C)cc3CCC2)CC1` (stereo not drawn) are 7.2 µM, 7.3 µM, 4 µM and 7.9 µM.
As to `Cc1cc2c(cc1C)C(Cl)=C(COCC(O)CN1CCN(c3ccc(C(F)(F)F)cc3)CC1)CCC2` (stereo not drawn), the GI50 in experiment [1] amounted to 3.8 µM; in experiment [2], 2.5 µM; in experiment [3], 3 µM; in experiment [4], 2 µM.
In the same order, the values of `Cc1cc2c(cc1C)C(Cl)=C(COCC(O)CN1CCC(Cc3ccccc3)CC1)CCC2` (stereo not drawn) are 1.4 µM, 2.9 µM, 1.8 µM and 1.2 µM.
On to `Cc1cc2c(cc1C)C(Cl)=C(COCC(O)CN1CCN(c3ccccc3)CC1)CCC2` (stereo not drawn), for which the GI50 in experiment [1] is 6.9 µM; in experiment [2], 7.8 µM; in experiment [3], 5.8 µM; in experiment [4], 8.8 µM.
In the same order, the values of `Cc1cc2c(cc1C)C(Cl)=C(COCC(O)CN1CCOCC1)CCC2` (stereo not drawn) are 7.4 µM, 7.9 µM, 5.2 µM and 5.6 µM.
With `COc1ccccc1N1CCN(CC(O)COCC2=C(Cl)c3cc(C)c(C)cc3CCC2)CC1` (stereo not drawn), the GI50 stood at 2.4 µM in experiment [1], 3 µM in experiment [2], 2.1 µM in experiment [3] and 2.8 µM in experiment [4].
In the same order, the values of `Cc1cc2c(cc1C)C(Cl)=C(COCC(O)CN1CCN(c3ccc([N+](=O)[O-])cc3)CC1)CCC2` (stereo not drawn) are 0.097 µM, 0.01 µM, 0.023 µM and 0.056 µM.
In the case of `COC(=O)Nc1nc2cc(C(=O)c3cccs3)ccc2[nH]1` [NOCODAZOLE], the GI50 was 0.086 µM in experiment [1], 0.065 µM in experiment [2], 0.09 µM in experiment [3] and 0.091 µM in experiment [4].
